{
  "source": "patent US20100069335A1",
  "about": "“Prevention and Treatment of Ophthalmic Complications of Diabetes” (priority 2005, published 2010)",
  "key": {"rat lens organ culture": {"system": "rat lens organ culture", "experiment": "Glucose-induced toxicity in rat lens organ culture (RLCE)", "format": "cell-based", "conditions": "50 mM glucose, 4 mM MSM, 0.5 mM EDTA", "protocol": "Animals. Male Sprague-Dawley rats weighing 200-250 g were obtained from Central Animal Care Services at the University of Texas Medical Branch. The NIH guidelines and ARVO statement for the Use of Animals in Ophthalmic and Vision Research were strictly followed for the welfare of the animals. Rats were sacrificed with using 100% carbon dioxide at a low flow rate (25-30% of the volume of the cage per minute) with two rats in a cage. After the rats stopped breathing for about 2 minutes, the eyeballs were removed. […] Experimental Procedure. 1. Sacrificed four rats, removed the eyeballs as soon as possible and put them into a tube containing PBS with 0.1% gentamicin. 2. Dissected the lenses immediately and washed with 1% penicillin/streptomycin in sterile with PBS. 3. Transferred each lens to a well of a 12-well plate (2 ml of medium per well, i.e., per lens). Each treatment was performed in 2 wells. The lenses were cultured in medium 199 containing 0.1% gentamicin at 37° C. in a 5% CO2 humidified atmosphere. Reagents as described above were added to three groups of two wells to give the following three treatments: • 50 mM glucose • 50 mM glucose+4 mM MSM • 50 mM glucose+4 mM MSM+0.5 mM EDTA One group of two wells was left untreated as a control. […] Photographs were taken using a Multidimensional Imaging System, and the level of light transparency through the lenses was determined"}, "[1]": {"conditions": "at 79° F.; cited from earlier work"}, "[2]": {"system": "Human lens epithelial cells (HLEC)", "experiment": "Viability of human lens epithelial cells subjected to glucose-induced toxicity (Trypan Blue)", "format": "cell-based", "conditions": "50 mM glucose; 4 mM MSM, 0.5 mM EDTA; 16 hrs; glucose alone decreased viability by 30%", "protocol": "Cell Culture and Treatment. Human lens epithelial […] extended life span were cultured in DMEM medium containing 0.1% gentamicin and supplemented with 20% fetal bovine serum at 37° C. in a 5% CO2-humidified atmosphere. 1.0×10^5 […] (Passage 5) were seeded in 12-well plate overnight prior to the addition of glucose, MSM or MSM/EDTA. The wells were divided into six groups of two wells. Cell viability. Cell survival was determined by Trypan Blue staining and counted with a hemocytometer. Dead cells stain blue, while live cells exclude Trypan Blue. Cell viability is represented as a percentage corresponding to the number of live cells divided by the total cells. […] DMEM+20% FBS+0.1% gentamicin • 400 mM MSM: 376 mg/10 ml PBS for stock • 50 mM EDTA (Tetrasodium Salt): 190 mg/10 ml PBS for stock, pH 7.2 • 5 M Glucose: 1800 mg/10 ml of dd H2O Experimental Procedure. 1. Seeded 0.5×10^5/ml of HLEC (Passage 5) into three 12-well plates, then incubated at 37° C. overnight. 2. Changed medium to 2% FBS DMEM medium. 3. […] They were harvested with 0.25% Trypsin-EDTA and cell viability was determined with Trypan-Blue."}},
  "data": [
    {"smiles": "CS(C)(=O)=O", "note": "[MSM, methylsulfonylmethane]", "values": [
      {"measurement": "lens opacification by glucose (photographs, FIG. 2)", "setting": "rat lens organ culture; seven days of culture", "result": "mitigated lens opacification"},
      {"measurement": "light transmission through the lens, relative to the untreated control (FIG. 3)", "setting": "rat lens organ culture; seven days, glucose alone 45%", "result": 68, "unit": "%"},
      {"measurement": "water solubility", "setting": "[1]", "result": 34, "unit": "% w/v"},
      {"measurement": "percent cell viability (FIG. 6)", "setting": "[2]", "result": "increased the percent cell viability"}
    ]}
  ]
}
